# Measurements as given in US6361998B1, “Efficient culture of stem cells for the production of hemoglobin” (Hemosol Inc., priority 1999, dated 2002).
# B1: truncated EpoR: murine EpoR with C-terminal 42 amino acids replaced with Ala-Leu (Yoshimura 1990) (protein, listed as Homo sapiens)
# chain: MDHLGASLWPQVGSLCLLLAGAAWAPPPNLPDPKFESKAALLAARGPEELLCFTERLEDLVCFWEEAASAGVGPGNYSFSYQLEDEPWKLCRLHQAPTARGAVRFWCSLPTADTSSFVPLELRVTAASGAPRYHRVIHINEVVLLDAPVGLVARLADESGHVVLRWLPPPETPMTSHIRYEVDVSAGNGAGSVQRVEILEGRTECVLSNLRGRTRYTFAVRARMAEPSFGGFWSAWSEPVSLLTPSDLDPLILTLSLILVVILVLLTVLALLSHRRALKQKIWPGIPSPESEFEGLFTTHKGNFQLWLYQNDGCLWWSPCTPFTEDPPASLEVLSERCWGTMQAVEPGTDDEGPLLEPVGSEHAQDTYLVLDKWLLPRNPPSEDLPGPGGSVDIVAMDEGSEASSCSSALASKPSPEGASAASFEYTILDPSSQLLRP
# B2: EpoR(t439): human EpoR truncated at Trp439; hypersensitive to Epo (SEQ ID NOS 4 and 5) (protein, listed as Homo sapiens)
# chain: MDHLGASLWPQVGSLCLLLAGAAWAPPPNLPDPKFESKAALLAARGPEELLCFTERLEDLVCFWEEAASAGVGPGNYSFSYQLEDEPWKLCRLHQAPTARGAVRFWCSLPTADTSSFVPLELRVTAASGAPRYHRVIHINEVVLLDAPVGLVARLADESGHVVLRWLPPPETPMTSHIRYEVDVSAGNGAGSVQRVEILEGRTECVLSNLRGRTRYTFAVRARMAEPSFGGFWSAWSEPVSLLTPSDLDPLILTLSLILVVILVLLTVLALLSHRRALKQKIWPGIPSPESEFEGLFTTHKGNFQLWLYQNDGCLWWSPCTPFTEDPPASLEVLSERCWGTMQAVEPGTDDEGPLLEPVGSEHAQDTYLVLDKWLLPRNPPSEDLPGPGGSVDIVAMDEGSEASSCSSALASKPSPEGASAASFEYTILDPSSQLLRP
# B3: EpoR(R129C): murine EpoR with Arg129 replaced by Cys, constitutively active (literature) (protein, UniProt P14753 25-507, looked up, variant R129C)
# Erythropoietin receptor: APSPSLPDPKFESKAALLASRGSEELLCFTQRLEDLVCFWEEAASSGMDFNYSFSYQLEGESRKSCSLHQAPTVRGSVRFWCSLPTADTSSFVPLELQVTEASGSPRYHRIIHINEVVLLDAPAGLLACRAEEGSHVVLRWLPPPGAPMTTHIRYEVDVSAGNRAGGTQRVEVLEGRTECVLSNLRGGTRYTFAVRARMAEPSFSGFWSAWSEPASLLTASDLDPLILTLSLILVLISLLLTVLALLSHRRTLQQKIWPGIPSPESEFEGLFTTHKGNFQLWLLQRDGCLWWSPGSSFPEDPPAHLEVLSEPRWAVTQAGDPGADDEGPLLEPVGSEHAQDTYLVLDKWLLPRTPCSENLSGPGGSVDPVTMDEASETSSCPSDLASKPRPEGTSPSSFEYTILDPSSQLLCPRALPPELPPTPPHLKYLYLVVSDSGISTDYSSGGSQGVHGDSSDGPYSHPYENSLVPDSEPLHPGYVACS
# B4: EpoR: full length wild-type human erythropoietin receptor (protein)
# chain: APPPNLPDPKFESKAALLAARGPEELLCFTERLEDLVCFWEEAASAGVGPGNYSFSYQLEDEPWKLCRLHQAPTARGAVRFWCSLPTADTSSFVPLELRVTAASGAPRYHRVIHINEVVLLDAPVGLVARLADESGHVVLRWLPPPETPMTSHIRYEVDVSAGNGAGSVQRVEILEGRTECVLSNLRGRTRYTFAVRARMAEPSFGGFWSAWSEPVSLLTPSDLDPLILTLSLILVVILVLLTVLALLSHRRALKQKIWPGIPSPESEFEGLFTTHKGNFQLWLYQNDGCLWWSPCTPFTEDPPASLEVLSERCWGTMQAVEPGTDDEGPLLEPVGSEHAQDTYLVLDKWLLPRNPPSEDLPGPGGSVDIVAMDEGSEASSCSSALASKPSPEGASAASFEYTILDPSSQLLRPWTLCPELPPTPPHLKYLYLVVSDSGISTDYSSGDSQGAQGGLSDGPYSNPYENSLIPAAEPLPPSYVACS
# Columns and labels:
# CD34^+ enriched cells [1] = assay: Expansion and differentiation of CD34+ enriched cells with SA added to EPSFM+LDL; type: cell-based, human
# Procedure: CD34^+ enriched cells were isolated and cultured as described in Example 1. Succinylacetone (SA), a heme synthesis inhibitor, was added to EPSFM+LDL at concentrations of 25 to 250 uM at the initiation of culture. Results are depicted in Table 4 and FIGS. 4 to 6. The addition of 50 uM SA to EPSFM+LDL increased cell expansion 8-fold when compared to controls without SA (FIG. 4).
# CD34^+ enriched cells [2] = assay: Addition of SA and hemin to EPSFM+LDL culture of CD34+ enriched cells, Hb content; type: cell-based, human; conditions: at culture termination; SA 25 uM; hemin (if any) 25 uM at initiation of culture
# Procedure: CD34^+ enriched cells were isolated and cultured in EPSFM+LDL as described in Example 1. In some samples, SA was added to EPSFM+LDL to a final concentration of 25 uM. In some instances, hemin was added to the SA containing cultures to a final hemin concentration of 25 uM. Hemin was added to some SA containing cultures at the initiation of culture and to others after 15 days of culture. The addition of SA, an inhibitor of heme synthesis, to EPSFM+LDL increased the fold expansion of cells obtained but reduced the percentage of GlyA^+ cells and the Hb content of these cells (Table 10). The low hemoglobin content was ameliorated by the addition of hemin to EPSFM+LDL+SA at the initiation of culture. However, as the percentage of GlyA^+ cells was decreased in this instance, the total amount of Hb per culture is similar to that observed with culture in EPSFM+LDL alone. The addition of hemin after 15 days of culture, instead of at culture initiation, further increased the fold expansion without reducing the percentage of GlyA^+ cells. Unexpectedly, the amount of hemoglobin per cell increased to approximately that obtained with EPSFM+LDL.
# [3] = tested on: CD34^+ enriched cells from human umbilical cord blood LDMNC; assay: Expansion and differentiation of CD34+ enriched cells in serum-free suspension culture; type: cell-based; conditions: hemin added to defined culture medium (25 uM, FIG. 3)
# Procedure: CD34^+ cells were enriched from human umbilical cord blood LDMNC by lineage depletion of cells expressing CD3, CD14, CD16, CD19, CD24, CD56, CD66b and glycophorin A (GlyA) to enrich lin^− cells. The viability of CD34^+ cells pre- and post-enrichment was determined by trypan-blue dye exclusion and cells were characterized for CD34 and CD45 co-expression by standard flow cytometry methods (see Table 2, FIG. 1).
# CD34^+ cells were cultured at an initial seeding density of 1-2×10^4 cells/ml in EPSFM+LDL with the composition described in Table 1B. […]
# At the end of 30 days in culture cells were fully differentiated erythroid cells with 57% of the cells staining positively with benzidine and 85% of the cells expressing the erythroid-specific membrane glycoprotein glycophorin A (GlyA). […] The amount of hemoglobin per cell was determined to be 5.2 pg using Western blot analysis. […]
# CD34^+ enriched cells were cultured for 7 to 11 days, as described in Example 1. […] Fewer than 2% of the cells expressed CD34, and hematopoietic progenitors were present at a frequency of 21 BFU-E, 33 CFU-E and 25 CFU-GM per 1×10^5 cells as detected in methylcellulose colony forming assay. […] Field strength, capacitance, and pulse width were optimized to achieve an average transfection efficiency of approximately 20% as measured at 24 hours post-electroporation.
# BaF3 cells [4] = conditions: cited from earlier work
# BaF3 cells [5] = assay: Cytokine-dependency growth of BaF3 cells transfected with human EpoR constructs; type: cell-based, murine; conditions: for growth of BaF3 transfectants: no exogenous IL-3
# Procedure: The functionality of the EpoR(t439; R154C) was tested and compared to the wild-type EpoR (wtEpoR) and EpoR(t439) using the BaF3 cell line. The cDNAs encoding these three different EpoRs were subcloned into the pcDNA3.1 expression vector, which provides high-level constitutive expression of proteins in mammalian cells and also contains the neomycin gene for the selection of stable transfectant with G418. The vector constructs were electroporated into BaF3 cells and stable transfectants were isolated in the presence of 600 ug/ml G418. BaF3 transfectants were maintained in RPMI-1640 with 10% FBS and 5% WEHI conditioned medium (a source of murine IL-3), except during the cytokine-dependency studies when cells were maintained in RPMI-1640 plus 10% FBS, along with the indicated cytokines. Growth of the different EpoR transfectants in the presence of either murine IL-3 or two different doses of Epo was compared to that of the parental (non-transfected) BaF3 cells (FIG. 7). […] All three EpoR constructs encode functional receptors that allow expansion of the BaF3 cells in the presence of Epo without exogenous IL-3.
molecule,measurement,setting,value
"CC(=O)CC(=O)CCC(=O)O [SA, Succinylacetone]",Total fold expansion (n = 3),CD34^+ enriched cells [1]; 25 uM SA added to EPSFM + LDL,6.36 × 10^6
same,Total fold expansion (n = 3),CD34^+ enriched cells [1]; 50 uM SA added to EPSFM + LDL,2.89 × 10^7
same,increase in cell expansion compared to controls without SA,CD34^+ enriched cells [1]; 50 uM SA in EPSFM+LDL,8 fold
same,suppression of BZ staining and GlyA expression,CD34^+ enriched cells [1]; 250 uM SA,Maximum suppression
same,Total fold expansion (n = 3),CD34^+ enriched cells [1]; 250 uM SA added to EPSFM + LDL,6.77 × 10^6
same,percentages of BZ+ and GlyA+ cells after SA removal,"CD34^+ enriched cells [1]; SA removed after at least 20 days of culture, by the following passage",increased significantly
same,erythroid differentiation (percentages of BZ+ and GlyA+ cells),CD34^+ enriched cells [1]; increasing amounts of SA (25 to 250 uM),reduced erythroid differentiation
same,% GlyA positive cells,CD34^+ enriched cells [2],74%
same,Hb per GlyA^+ cell,CD34^+ enriched cells [2],0.95 pg/cell
same,Total Hb per culture,CD34^+ enriched cells [2],0.03 g
same,Total number of GlyA^+ cells,CD34^+ enriched cells [2],2.9 × 10^10
same,Total number of cells,CD34^+ enriched cells [2],3.9 × 10^10
hemin,"effect of hemin addition on Hb content, number of GlyA cells and BZ positive cells",[3],did not substantially increase
B1,responsiveness to Epo relative to the wild-type EpoR,"BaF3 cells [4]; murine EpoR, C-terminal 42 amino acids replaced with Ala-Leu, expressed in BaF3 cells",3-5 times
B2,growth of BaF3 transfectants,BaF3 cells [5]; 0.02 U/ml Epo,grew equally well
same,growth of BaF3 transfectants,BaF3 cells [5]; 2 U/ml Epo,grew equally well
same,expansion of BaF3 cells,BaF3 cells [5]; absence of exogenous cytokines,did not support cell expansion
same,functionality of the EpoR,BaF3 cells [5]; conclusion from BaF3 growth,functional and hypersensitive to Epo
B3,cytokine dependence of BaF3 cell growth,BaF3 cells [4]; over-expression of murine EpoR(R129C),permits cytokine-independent growth of BaF3 cells
B4,growth of BaF3 transfectants,BaF3 cells [5]; 0.02 U/ml Epo,did not grow
same,growth of BaF3 transfectants,BaF3 cells [5]; 2 U/ml Epo,grew in the presence of 2 U/ml Epo alone
